Test results published in PMC12469672, “Effects on Oral Squamous Carcinoma Cell Lines and Their Mechanisms of Pyrazole N-Aryl Sulfonate: A Novel Class of Selective Cyclooxygenase-2 Inhibitors” (International Journal of Molecular Sciences, 2025).
“Also recorded” adds a separate entry of the source. Like-named read-outs stand apart in the source and are kept apart here.

How the values were obtained:
Assay type in all cases: cell-based
CAL-27 cells = assay: CCK-8 proliferation assay, CAL-27; settings: for IC50: Homo sapiens; for Selectivity Index CAL-27: SI = IC50,VERO/IC50,CAL-27
Experimental: The OSCC cell lines CAL-27 (STCC12901P, Servicebio, Wuhan, China) and SAS (CC0706, Cellcook, Guangzhou, China) were cultured in Dulbecco Modified Eagle Medium F12 (DMEM/F12) (G4610-500ML, Servicebio, Wuhan, China) supplemented with 10% fetal bovine serum (FBS) (AB-FBS-DIA1050, ABW, Shanghai, China) and 100 U/mL penicillin-streptomycin-gentamicin solution (G4014-100ML, Servicebio, Wuhan, China). VERO cells were cultured in DMEM (G4524-500ML, Servicebio, Wuhan, China) supplemented with 10% FBS (AB-FBS-DIA1050, ABW, China) and 100 U/mL penicillin–streptomycin–gentamicin solution (G4014-100ML, Servicebio, Wuhan, China). […] were maintained at 37 °C in a humidified 5% CO2 incubator. For experiments, 1 × 10^6 cells were seeded per T-25 culture flask.
CAL-27, SAS, and VERO cells were seeded in 96-well plates at a density of 5000 cells per well. At specified time intervals, 10 μL of Cell Counting Kit-8 (CCK-8) reagent (K1018, Apexbio, Boston, MA, USA) was added to each well and incubated for 2 h. Absorbance at 450 nm was measured using a microplate reader (Infinite M200 Pro, Tecan Group, Männedorf, Switzerland).

[1] = test system: COX-2 protein in CAL-27 cells; assay: Western blot COX-2, CAL-27; settings: CAL-27, vs control group and CXB-treated group
Experimental: (§1) Cell lysates were centrifuged at 12,000× g for 10 min at 4 °C and then quantified using the BCA Protein Assay Kit (CW0014S, Cwbio, Taizhou, China). The lysate was denatured with sodium dodecyl sulfate–polyacrylamide gel electrophoresis (SDS-PAGE) sample loading buffer (P1040, Solarbio, Beijing, China), followed by SDS-PAGE and electrotransfer to polyvinylidene difluoride membranes (10600023, Cytiva, Marlborough, MA, USA). The membranes were incubated overnight at 4 °C with GAPDH (1:5000, 1049-1-AP, Proteintech Group, Wuhan, China), anti-PTGS2 (1:2000, 12375-1-AP, Proteintech Group, China), anti-BAX (1:1000, ab777, Abcam, Cambridge, UK), anti-BCL2 (1:5000, ET1702-53, HUABIO, Hangzhou, China), anti-BCL-XL (1:8000, 10783-1-AP, Proteintech Group, China), anti-MMP2 (1:3000, 66366-1-Ig, Proteintech Group, China), anti-MMP9 (1:3000, 10372-2-AP, Proteintech Group, China), anti-JAK1 (1:3000, 66466-1-Ig, Proteintech Group, China), anti-phospho-JAK1 (1:400, GB115604-100, Servicebio, China), anti-STAT3 (1:2000, 10253-2-AP, Proteintech Group, China), and anti-phospho-STAT3 (1:1000, 39595, Activemotif, Shanghai, China) at the appropriate dilution and then incubated with the secondary antibody at room temperature for 1.5 h. The bands were visualized by employing an ECL detection reagent (36208ES76, Yeasen, Shanghai, China) and independently quantified twice using ImageJ (v1.8.0.322) and ChemiScope Analysis (Version 2.1.6.0) software. Subsequently, the obtained data were normalized to GAPDH.

SAS cells [2] = assay: Transwell migration assay, SAS; settings: 24 h treatment at working concentrations, vs control
Experimental: Following 24 h drug treatment at the predefined working concentrations, CAL-27 and SAS cells (5 × 10^5 cells/mL in serum-free medium) were seeded in Transwell upper chambers (200 μL/well, 1 × 10^5 cells) with 700 μL complete medium containing 10% FBS in lower chambers. After 36 h of incubation (37 °C, 5% CO2), the cells from the upper surface of the membrane were wiped off using a cotton swab, whereupon migrated cells were fixed (4% paraformaldehyde [P0099-100 mL, Beyotime, Haimen, China], 4 °C, 4 h), stained (0.1% crystal violet [C0121-100 mL, Beyotime, China], 30 min), and quantified by counting five random fields under a microscope (CX23, Olympus, Tokyo, Japan) using ImageJ (v1.8.0.322), with triplicate wells per condition.

[3] = test system: MMP9 mRNA in CAL-27 cells; assay: RT-qPCR MMP9 mRNA, CAL-27; settings: CAL-27, 24 h, vs control
Experimental: Equal amounts of RNA were reverse transcribed into cDNA using the Reverse Transcription Kit (AG11705, Accurate Biology, Guangzhou, China) following the manufacturer’s instructions. Quantitative PCR was performed on a QIAGEN Rotor-GeneQ system (9001862, QIAGEN, Hilden, Germany) with SYBR Green Pro Taq HS Premix II (AG11702, Accurate Biology, China).
The PCR protocol consisted of initial denaturation at 95 °C for 30 s, followed by 40 cycles of 95 °C for 5 s and 60 °C for 30 s. All reactions were performed in triplicate, with melting curve analysis confirming amplification specificity. The expression of the target genes was normalized to GAPDH, and fold changes were calculated in the manner of the 2^−ΔΔCT .

SAS cells [4] = assay: Hoechst 33342 staining, SAS; settings: 24 h, working concentrations, vs NC
Experimental: After 24 h drug treatment at the predefined working concentrations, CAL-27 and SAS cells were dyed with 300 μL Hoechst 33342 staining (C1022, Beyotime, China) in the dark at 37 °C for 10 min. Then, the residual Hoechst 33342 staining was washed 3 times with 1 × phosphate-buffered saline (PBS, G4250-500ML, Servicebio, China). The images were then immediately examined under an inverted fluorescence microscope (CX23, Olympus, Japan).

SAS cells [5] = assay: Annexin V-FITC/PI flow cytometry apoptosis, SAS; settings: 24 h, vs control
Experimental: After 24 h drug treatment at the predefined working concentrations, CAL-27 and SAS cells were trypsinized, centrifuged (200× g, 5 min, RT), and washed twice with 1 mL ice-cold PBS. Cell aliquots ((5–10) × 10^4 cells) were resuspended in 195 μL Annexin V-FITC binding buffer, followed by sequential addition of 5 μL Annexin V-FITC and 10 μL propidium iodide (PI) (BMS500FI-100, Thermo Fisher Scientific, Wien, Austria) with gentle mixing. After 10–20 min of incubation in darkness (20–25 °C) with intermittent resuspension (2–3 times), samples were placed on ice and analyzed within 1 h using a flow cytometer (CytExpert software [Version 2.4.0.28, Beckman Coulter, Brea, CA, USA]). Triplicate independent experiments were performed for statistical analysis.

[6] = test system: BCL2 protein in CAL-27 cells; assay: Western blot BCL2, CAL-27; settings: CAL-27, vs CXB
Experimental: as §1

[7] = CAL-27, 24 h, CAL-27, CCK-8, 24 h, given as a range, read-out: IC50 (range)
[8] = CAL-27, CAL-27, CCK-8, read-out: IC50 CAL-27

Row | SMILES | IC50 (CAL-27 cells; [7]) [µM] | IC50 (CAL-27 cells; [8]) [µM] | Selectivity Index CAL-27 (CAL-27 cells) | COX-2 protein expression (Western blot) [1] | migratory capacity (Transwell) (SAS cells [2]) | MMP9 mRNA expression [3] | apoptotic cells (Hoechst 33342, fluorescence microscopy) (SAS cells [4]) | total apoptotic cell population (early and late apoptosis) (SAS cells [5]) | BCL2 protein suppression (Western blot) [6]
1 | Cc1ccc(-c2cc(C)n(S(=O)(=O)Oc3ccc(I)cc3)n2)cc1 [Compound 4b] | 38.9 to 43.8 | 41.4 | 2.47 | significantly reduced | significantly reduced | significantly downregulated | significant increase | significantly higher | stronger suppression of BCL2 than CXB
2 | Cc1ccc(-c2cc(C)n(S(=O)(=O)Oc3ccccc3Cl)n2)cc1 [Compound 4d] | 44.3 to 55.1 | 53.9 | >1.86 | significantly reduced | significantly reduced | significantly downregulated | significant increase | significantly higher | stronger suppression of BCL2 than CXB
3 | Cc1cc(-c2ccco2)nn1S(=O)(=O)Oc1ccccc1Cl [Compound 5f] | 52.9 to 74.8 | 64.2 | 3.50 | significantly reduced | significantly reduced | significantly downregulated | significant increase | significantly higher; also recorded: optimal efficacy | stronger suppression of BCL2 than CXB
